How the values were obtained:
Assay type in all cases: in vivo
Euschistus heros = Euschistus heros (neotropical brown stink bug), sprayed soybean leaves; details: 120 h, application rate 200 ppm, N2 nymphs, 5 days after infestation, read-out: effect in at least one of the two categories (mortality or growth inhibition)
Method: Soybean leaves on agar in 24-well microtiter plates were sprayed with aqueous test solutions prepared from 10'000 ppm DMSO stock solutions. After drying the leaves were infested with N2 nymphs. The samples were assessed for mortality and growth inhibition in comparison to untreated samples 5 days after infestation.
(§1) The following compounds gave an effect of at least 80% in at least one of the two categories (mortality or growth inhibition) at an application rate of 200 ppm: […]

Plutella xylostella = Plutella xylostella (diamond back moth), artificial diet; details: 120 h, application rate 200 ppm, L2 larvae, 5 days after infestation, read-out: effect in at least one of the two categories (mortality or growth inhibition)
Method: 24-well microtiter plates with artificial diet were treated with aqueous test solutions prepared from 10'000 ppm DMSO stock solutions by pipetting. After drying, the plates were infested with L2 larvae (10 to 15 per well). The samples were assessed for mortality and growth inhibition in comparison to untreated samples 5 days after infestation.
as §1

Spodoptera littoralis = Spodoptera littoralis (Egyptian cotton leaf worm), sprayed cotton leaf discs; details: foliar, 72 h, application rate 200 ppm, L1 larvae, 3 days after infestation, read-out: control (mortality, anti-feeding effect, growth inhibition)
Method: Cotton leaf discs were placed onto agar in 24-well microtiter plates and sprayed with aqueous test solutions prepared from 10'000 ppm DMSO stock solutions. After drying the leaf discs were infested with five L1 larvae. The samples were assessed for mortality, anti-feeding effect, and growth inhibition in comparison to untreated samples 3 days after infestation. Control of Spodoptera littoralis by a test sample is given when at least one of the categories mortality, anti-feedant effect, and growth inhibition is higher than the untreated sample.

Diabrotica balteata = Diabrotica balteata (corn root worm), sprayed maize sprouts; details: 96 h, application rate 200 ppm, L2 larvae, 4 days after infestation, read-out: effect in at least one of the two categories (mortality or growth inhibition)
Method: Maize sprouts placed onto an agar layer in 24-well microtiter plates were treated with aqueous test solutions prepared from 10'000 ppm DMSO stock solutions by spraying. After drying, the plates were infested with L2 larvae (6 to 10 per well). The samples were assessed for mortality and growth inhibition in comparison to untreated samples 4 days after infestation.
as §1

Tetranychus urticae = Tetranychus urticae (two-spotted spider mite): feeding/contact activity; details: 192 h, application rate 200 ppm, mixed population (mobile stages), 8 days after infestation, read-out: mortality
Method: Bean leaf discs on agar in 24-well microtiter plates were sprayed with aqueous test solutions prepared from 10'000 ppm DMSO stock solutions. After drying the leaf discs were infested with a mite population of mixed ages. The samples were assessed for mortality on mixed population (mobile stages) 8 days after infestation.

Thrips tabaci = Thrips tabaci (onion thrips): feeding/contact activity; details: 144 h, application rate 200 ppm, Thrips population of mixed ages, 6 days after infestation, read-out: mortality
Method: Sunflower leaf discs were placed on agar in 24-well microtiter plates and sprayed with aqueous test solutions prepared from 10'000 ppm DMSO stock solutions. After drying the leaf discs were infested with a Thrips population of mixed ages. The samples were assessed for mortality 6 days after infestation.

Cc1cc(C2=NO[C@@](c3cc(Cl)c(F)c(Cl)c3)(C(F)(F)F)C2)ccc1C(=O)NC1CON(S(=O)(=O)N(C)S(C)(=O)=O)C1 (stereo partly drawn) [Compound A92]
≥ 80%: percent effect (mortality or growth inhibition) at 200 ppm (Euschistus heros) | percent effect (mortality or growth inhibition) at 200 ppm (Plutella xylostella) | mortality at 200 ppm (Spodoptera littoralis) | percent effect (mortality or growth inhibition) at 200 ppm (Diabrotica balteata) | mortality at 200 ppm (Tetranychus urticae) | mortality at 200 ppm (Thrips tabaci)

Cc1cc(C2=NO[C@@](c3cc(Cl)c(F)c(Cl)c3)(C(F)(F)F)C2)ccc1C(=O)NC1CON(S(=O)(=O)c2cccs2)C1 (stereo partly drawn) [Compound A9]
≥ 80%: percent effect (mortality or growth inhibition) at 200 ppm (Euschistus heros) | percent effect (mortality or growth inhibition) at 200 ppm (Plutella xylostella) | mortality at 200 ppm (Spodoptera littoralis) | percent effect (mortality or growth inhibition) at 200 ppm (Diabrotica balteata) | mortality at 200 ppm (Tetranychus urticae) | mortality at 200 ppm (Thrips tabaci)

COC(=O)CS(=O)(=O)N1C[C@H](NC(=O)c2ccc(C3=NO[C@@](c4cc(Cl)c(F)c(Cl)c4)(C(F)(F)F)C3)cc2C)CO1 [Compound A190, methyl 2-[[(4S)-4-[[4-[(5S)-5-(3,5-dichloro-4-fluorophenyl)-5-(trifluoromethyl)-4H-1,2-oxazol-3-yl]-2-methylbenzoyl]amino]-1,2-oxazolidin-2-yl]sulfonyl]acetate]
≥ 80%: percent effect (mortality or growth inhibition) at 200 ppm (Euschistus heros) | percent effect (mortality or growth inhibition) at 200 ppm (Plutella xylostella) | mortality at 200 ppm (Spodoptera littoralis) | percent effect (mortality or growth inhibition) at 200 ppm (Diabrotica balteata) | mortality at 200 ppm (Tetranychus urticae) | mortality at 200 ppm (Thrips tabaci)

COC(=O)CS(=O)(=O)N1C[C@@H](NC(=O)c2ccc(C3=NO[C@](c4cc(Cl)cc(Cl)c4)(C(F)(F)F)C3)cc2C)CO1 [Compound A176, methyl 2-[[(4R)-4-[[4-[(5R)-5-(3,5-dichlorophenyl)-5-(trifluoromethyl)-4H-1,2-oxazol-3-yl]-2-methylbenzoyl]amino]-1,2-oxazolidin-2-yl]sulfonyl]acetate]
≥ 80%: percent effect (mortality or growth inhibition) at 200 ppm (Euschistus heros) | percent effect (mortality or growth inhibition) at 200 ppm (Plutella xylostella) | mortality at 200 ppm (Spodoptera littoralis) | percent effect (mortality or growth inhibition) at 200 ppm (Diabrotica balteata) | mortality at 200 ppm (Tetranychus urticae) | mortality at 200 ppm (Thrips tabaci)

Cc1cc(C2=NO[C@@](c3cc(Cl)c(Cl)c(Cl)c3)(C(F)(F)F)C2)ccc1C(=O)N[C@H]1CON(S(=O)(=O)CC(F)(F)F)C1 [Compound A221, 2-methyl-4-[(5S)-5-(3,4,5-trichlorophenyl)-5-(trifluoromethyl)-4H-1,2-oxazol-3-yl]-N-[(4R)-2-(2,2,2-trifluoroethylsulfonyl)-1,2-oxazolidin-4-yl]benzamide]
≥ 80%: percent effect (mortality or growth inhibition) at 200 ppm (Euschistus heros) | percent effect (mortality or growth inhibition) at 200 ppm (Plutella xylostella) | mortality at 200 ppm (Spodoptera littoralis) | percent effect (mortality or growth inhibition) at 200 ppm (Diabrotica balteata) | mortality at 200 ppm (Tetranychus urticae) | mortality at 200 ppm (Thrips tabaci)

Cc1cc(C2=NO[C@](c3cc(Cl)c(F)c(Cl)c3)(C(F)(F)F)C2)ccc1C(=O)N[C@@H]1CON(SC(F)(F)F)C1 [Compound A224, 4-[(5R)-5-(3,5-dichloro-4-fluorophenyl)-5-(trifluoromethyl)-4H-1,2-oxazol-3-yl]-2-methyl-N-[(4S)-2-(trifluoromethylsulfanyl)-1,2-oxazolidin-4-yl]benzamide]
≥ 80%: percent effect (mortality or growth inhibition) at 200 ppm (Euschistus heros) | percent effect (mortality or growth inhibition) at 200 ppm (Plutella xylostella) | mortality at 200 ppm (Spodoptera littoralis) | percent effect (mortality or growth inhibition) at 200 ppm (Diabrotica balteata) | mortality at 200 ppm (Tetranychus urticae) | mortality at 200 ppm (Thrips tabaci)

Cc1cc(C2=NO[C@@](c3cc(Cl)c(F)c(Cl)c3)(C(F)(F)F)C2)ccc1C(=O)NC1CON(S(=O)(=O)NS(C)(=O)=O)C1 (stereo partly drawn) [Compound A102, 4-[(5S)-5-(3,5-dichloro-4-fluoro-phenyl)-5-(trifluoromethyl)-4H-isoxazol-3-yl]-2-methyl-N-[2-(methylsulfonylsulfamoyl)isoxazolidin-4-yl]benzamide]
≥ 80%: percent effect (mortality or growth inhibition) at 200 ppm (Euschistus heros) | percent effect (mortality or growth inhibition) at 200 ppm (Plutella xylostella) | mortality at 200 ppm (Spodoptera littoralis) | percent effect (mortality or growth inhibition) at 200 ppm (Diabrotica balteata) | mortality at 200 ppm (Tetranychus urticae) | mortality at 200 ppm (Thrips tabaci)

Cc1cc(C2=NO[C@](c3cc(Cl)c(F)c(Cl)c3)(C(F)(F)F)C2)ccc1C(=O)N[C@H]1CON(S(=O)(=O)CC#N)C1 [Compound A163]
≥ 80%: percent effect (mortality or growth inhibition) at 200 ppm (Euschistus heros) | percent effect (mortality or growth inhibition) at 200 ppm (Plutella xylostella) | mortality at 200 ppm (Spodoptera littoralis) | percent effect (mortality or growth inhibition) at 200 ppm (Diabrotica balteata) | mortality at 200 ppm (Tetranychus urticae) | mortality at 200 ppm (Thrips tabaci)

Cc1cc(C2=NO[C@](c3cc(Cl)c(F)c(Cl)c3)(C(F)(F)F)C2)ccc1C(=O)N[C@H]1CON(SC(Cl)(Cl)Cl)C1 [Compound A227, 4-[(5R)-5-(3,5-dichloro-4-fluorophenyl)-5-(trifluoromethyl)-4H-1,2-oxazol-3-yl]-2-methyl-N-[(4R)-2-(trichloromethylsulfanyl)-1,2-oxazolidin-4-yl]benzamide]
≥ 80%: percent effect (mortality or growth inhibition) at 200 ppm (Euschistus heros) | percent effect (mortality or growth inhibition) at 200 ppm (Plutella xylostella) | mortality at 200 ppm (Spodoptera littoralis) | percent effect (mortality or growth inhibition) at 200 ppm (Diabrotica balteata) | mortality at 200 ppm (Tetranychus urticae) | mortality at 200 ppm (Thrips tabaci)

C=CCN(C(=O)OC(C)(C)C)S(=O)(=O)N1CC(NC(=O)c2ccc(C3=NO[C@@](c4cc(Cl)c(F)c(Cl)c4)(C(F)(F)F)C3)cc2C)CO1 (stereo partly drawn) [Compound A94, tert-butyl N-allyl-N-[4-[[4-[(5S)-5-(3,5-dichloro-4-fluoro-phenyl)-5-(trifluoromethyl)-4H-isoxazol-3-yl]-2-methyl-benzoyl]amino]isoxazolidin-2-yl]sulfonyl-carbamate]
≥ 80%: percent effect (mortality or growth inhibition) at 200 ppm (Euschistus heros) | percent effect (mortality or growth inhibition) at 200 ppm (Plutella xylostella) | mortality at 200 ppm (Spodoptera littoralis) | percent effect (mortality or growth inhibition) at 200 ppm (Diabrotica balteata) | mortality at 200 ppm (Tetranychus urticae) | mortality at 200 ppm (Thrips tabaci)

Cc1cc(C2=NO[C@@](c3cc(Cl)cc(Cl)c3)(C(F)(F)F)C2)ccc1C(=O)N[C@@H]1CON(S(=O)(=O)NCC(F)(F)F)C1 [Compound A194]
≥ 80%: percent effect (mortality or growth inhibition) at 200 ppm (Euschistus heros) | percent effect (mortality or growth inhibition) at 200 ppm (Plutella xylostella) | mortality at 200 ppm (Spodoptera littoralis) | percent effect (mortality or growth inhibition) at 200 ppm (Diabrotica balteata) | mortality at 200 ppm (Tetranychus urticae) | mortality at 200 ppm (Thrips tabaci)
